According to patent US11932658B2 (BRISTOL-MYERS SQUIBB COMPANY, priority 2016, dated 2024):

target: T1, PAR4 (Homo sapiens, UniProt Q96RI0); test: PAR4 FLIPR assay (antagonism of agonist peptide-induced calcium mobilization); type: cell-based
T1 construct: expressed in transfected cells; host or cells: HEK293 PAR4 Clone 1.2A (BMS Arctic ID 383940)
T1 sequence (Q96RI0 18-385): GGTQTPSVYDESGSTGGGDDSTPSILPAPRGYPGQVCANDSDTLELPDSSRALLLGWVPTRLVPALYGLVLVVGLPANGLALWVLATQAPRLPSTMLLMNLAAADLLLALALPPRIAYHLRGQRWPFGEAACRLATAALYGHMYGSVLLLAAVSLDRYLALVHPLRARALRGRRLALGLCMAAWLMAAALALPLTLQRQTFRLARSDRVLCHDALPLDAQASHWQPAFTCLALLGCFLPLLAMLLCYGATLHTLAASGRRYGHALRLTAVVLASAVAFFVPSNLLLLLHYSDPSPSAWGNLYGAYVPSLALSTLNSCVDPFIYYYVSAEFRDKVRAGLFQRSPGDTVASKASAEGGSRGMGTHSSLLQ
Procedure, shortened: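 Antagonism was taken as block of calcium mobilization evoked by the agonist peptide H-Ala-Phe(4-F)-Pro-Gly-Trp-Leu-Val-Lys-Asn-[…]-NH2, added after 30 min room-temperature compound preincubation in dye-loaded PAR4-transfected HEK293 cells (endogenous PAR1). Fluorescence was read on FDSS, with compound addition alone used as the agonist counter-screen; values come from 11-point concentration-response curves.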

| Structure (SMILES) | IC50 [nM] |
| --- | --- |
| COc1cnc2c(-c3nc4c(Cl)cc5c(c4s3)OC[C@H](COC(=O)Nc3cncc(C#N)c3)O5)cc(C)cc2n1 [Example 37, (R)-(4-chloro-2-(2-methoxy-7-methylquinoxalin-5-yl)-7,8-dihydro-[1,4]dioxino[2′,3′:3,4]benzo[1,2-d]thiazol-7-yl)methyl (5-cyanopyridin-3-yl)carbamate] | 1.5 |
| COc1cnc2c(-c3nc4c(C)cc5c(c4s3)OC[C@H](COC(=O)Nc3ccc(C#N)nc3)O5)cc(C)cc2n1 [Example 38, (R)-(2-(2-methoxy-7-methylquinoxalin-5-yl)-4-methyl-7,8-dihydro-[1,4]dioxino[2′,3′:3,4]benzo[1,2-d]thiazol-7-yl)methyl (6-cyanopyridin-3-yl)carbamate] | 1.3 |
| COc1cnc2c(-c3nc4c(Cl)cc5c(c4s3)OC[C@H](COC(=O)Nc3ccc4scnc4c3)O5)cc(C)cc2n1 [Example 39, (R)-(4-chloro-2-(2-methoxy-7-methylquinoxalin-5-yl)-7,8-dihydro-[1,4]dioxino[2′,3′:3,4]benzo[1,2-d]thiazol-7-yl)methyl benzo[d]thiazol-5-ylcarbamate] | 18 |
| COc1cnc2c(-c3nc4c(Cl)cc5c(c4s3)OC[C@H](COC(=O)Nc3ccc4ncsc4c3)O5)cc(C)cc2n1 [Example 40, (R)-(4-chloro-2-(2-methoxy-7-methylquinoxalin-5-yl)-7,8-dihydro-[1,4]dioxino[2′,3′:3,4]benzo[1,2-d]thiazol-7-yl)methyl benzo[d]thiazol-6-ylcarbamate] | 97 |
| COc1cnc2c(-c3nc4c(C)cc5c(c4s3)OC[C@H](COC(=O)Nc3ccc(F)nc3)O5)cc(C)cc2n1 [Example 41, (R)-(2-(2-methoxy-7-methylquinoxalin-5-yl)-4-methyl-7,8-dihydro-[1,4]dioxino[2′,3′:3,4]benzo[1,2-d]thiazol-7-yl)methyl (6-fluoropyridin-3-yl)carbamate] | 1.6 |
| COc1cnc2c(-c3nc4c(C)cc5c(c4s3)OC[C@H](COC(=O)Nc3cncc(F)c3)O5)cc(C)cc2n1 [Example 42, (R)-(2-(2-methoxy-7-methylquinoxalin-5-yl)-4-methyl-7,8-dihydro-[1,4]dioxino[2′,3′:3,4]benzo[1,2-d]thiazol-7-yl)methyl (5-fluoropyridin-3-yl)carbamate] | 50 |
| COc1cncc(NC(=O)OC[C@H]2COc3c(cc(C)c4nc(-c5cc(C)cc6nc(OC)cnc56)sc34)O2)c1 [Example 43, (R)-(2-(2-methoxy-7-methylquinoxalin-5-yl)-4-methyl-7,8-dihydro-[1,4]dioxino[2′,3′:3,4]benzo[1,2-d]thiazol-7-yl)methyl (5-methoxypyridin-3-yl)carbamate] | 7.9 |
| COc1cnc2c(-c3nc4c(C)cc5c(c4s3)OC[C@H](COC(=O)Nc3ccnc(C)c3)O5)cc(C)cc2n1 [Example 44, (R)-(2-(2-methoxy-7-methylquinoxalin-5-yl)-4-methyl-7,8-dihydro-[1,4]dioxino[2′,3′:3,4]benzo[1,2-d]thiazol-7-yl)methyl (2-methylpyridin-4-yl)carbamate] | 0.8 |
| COc1cc(NC(=O)OC[C@H]2COc3c(cc(C)c4nc(-c5cc(C)cc6nc(OC)cnc56)sc34)O2)ccn1 [Example 45, (R)-(2-(2-methoxy-7-methylquinoxalin-5-yl)-4-methyl-7,8-dihydro-[1,4]dioxino[2′,3′:3,4]benzo[1,2-d]thiazol-7-yl)methyl (2-methoxypyridin-4-yl)carbamate] | 1.1 |
| COc1cnc2c(-c3nc4c(C)cc5c(c4s3)OC[C@H](COC(=O)Nc3cccc(C#N)c3)O5)cc(C)cc2n1 [Example 46, (R)-(2-(2-methoxy-7-methylquinoxalin-5-yl)-4-methyl-7,8-dihydro-[1,4]dioxino[2′,3′:3,4]benzo[1,2-d]thiazol-7-yl)methyl (3-cyanophenyl)carbamate] | 1 |
| COc1cnc2c(-c3nc4c(C)cc5c(c4s3)OC[C@H](COC(=O)Nc3ccc(Cl)nc3)O5)cc(C)cc2n1 [Example 47, (R)-(2-(2-methoxy-7-methylquinoxalin-5-yl)-4-methyl-7,8-dihydro-[1,4]dioxino[2′,3′:3,4]benzo[1,2-d]thiazol-7-yl)methyl (6-chloropyridin-3-yl)carbamate] | 1.2 |
| COc1cnc2c(-c3nc4c(C)cc5c(c4s3)OC[C@H](COC(=O)Nc3ccncc3)O5)cc(C)cc2n1 [Example 48, (R)-(2-(2-methoxy-7-methylquinoxalin-5-yl)-4-methyl-7,8-dihydro-[1,4]dioxino[2′,3′:3,4]benzo[1,2-d]thiazol-7-yl)methyl pyridin-4-ylcarbamate] | 25 |
| COc1cnc2c(-c3nc4c(C)cc5c(c4s3)OC[C@H](COC(=O)Nc3ccc4scnc4c3)O5)cc(C)cc2n1 [Example 49, (R)-(2-(2-methoxy-7-methylquinoxalin-5-yl)-4-methyl-7,8-dihydro-[1,4]dioxino[2′,3′:3,4]benzo[1,2-d]thiazol-7-yl)methyl benzo[d]thiazol-5-ylcarbamate] | 49 |
| COc1cnc2c(-c3nc4c(C)cc5c(c4s3)OC[C@H](COC(=O)Nc3ccc4ncsc4c3)O5)cc(C)cc2n1 [Example 50, (R)-(2-(2-methoxy-7-methylquinoxalin-5-yl)-4-methyl-7,8-dihydro-[1,4]dioxino[2′,3′:3,4]benzo[1,2-d]thiazol-7-yl)methyl benzo[d]thiazol-6-ylcarbamate] | 140 |
| COc1cnc2c(-c3nc4c(C)cc5c(c4s3)OC[C@H](COC(=O)Nc3cncc(C#N)c3)O5)cc(C)cc2n1 [Example 51, (R)-(2-(2-methoxy-7-methylquinoxalin-5-yl)-4-methyl-7,8-dihydro-[1,4]dioxino[2′,3′:3,4]benzo[1,2-d]thiazol-7-yl)methyl (5-cyanopyridin-3-yl)carbamate] | 16 |

The remaining lines, values ahead:

| IC50 [nM] | Structure (SMILES) |
| --- | --- |
| 54 | COc1cnc2c(-c3nc4c(C)cc5c(c4s3)OC[C@H](COC(=O)Nc3ccc(-c4cccs4)nc3)O5)cc(C)cc2n1 [Example 53, (R)-(2-(2-methoxy-7-methylquinoxalin-5-yl)-4-methyl-7,8-dihydro-[1,4]dioxino [2′,3′:3,4]benzo[1,2-d]thiazol-7-yl)methyl (6-(thiophen-2-yl)pyridin-3-yl)carbamate] |
| 1.6 | COc1cnc2c(-c3nc4c(C)cc5c(c4s3)OC[C@H](COC(=O)Nc3cnc4c(c3)ncn4C)O5)cc(C)cc2n1 [Example 54, (R)-(2-(2-methoxy-7-methylquinoxalin-5-yl)-4-methyl-7,8-dihydro-[1,4]dioxino[2′,3′:3,4]benzo[1,2-d]thiazol-7-yl)methyl (3-methyl-3H-imidazo[4,5-b]pyridin-6-yl)carbamate] |
| 21 | COc1cnc2c(-c3nc4c(C)cc5c(c4s3)OC[C@H](COC(=O)Nc3ccc(-n4cnc(C)n4)nc3)O5)cc(C)cc2n1 [Example 55, (R)-(2-(2-methoxy-7-methylquinoxalin-5-yl)-4-methyl-7,8-dihydro-[1,4]dioxino [2′,3′:3,4]benzo[1,2-d]thiazol-7-yl)methyl (6-(3-methyl-1H-1,2,4-triazol-1-yl)pyridin-3-yl)carbamate] |
| 1 | COc1cnc2c(-c3nc4c(C)cc5c(c4s3)OC[C@H](COC(=O)Nc3ccc(C)nc3)O5)cc(C)cc2n1 [Example 56, (R)-(2-(2-methoxy-7-methylquinoxalin-5-yl)-4-methyl-7,8-dihydro-[1,4]dioxino[2′,3′:3,4]benzo[1,2-d]thiazol-7-yl)methyl (6-methylpyridin-3-yl)carbamate] |
| 9.7 | COc1cnc2c(-c3nc4c(C)cc5c(c4s3)OC[C@H](COC(=O)Nc3cncc(C)c3)O5)cc(C)cc2n1 [Example 57, (R)-(2-(2-methoxy-7-methylquinoxalin-5-yl)-4-methyl-7,8-dihydro-[1,4]dioxino[2′,3′:3,4]benzo[1,2-d]thiazol-7-yl)methyl (5-methylpyridin-3-yl)carbamate] |
| 8.8 | COc1cnc2c(-c3nc4c(Cl)cc5c(c4s3)OC[C@H](COC(=O)Nc3cnc(Cl)nc3)O5)cc(C)cc2n1 [Example 58, (R)-(4-chloro-2-(2-methoxy-7-methylquinoxalin-5-yl)-7,8-dihydro-[1,4]dioxino[2′,3′:3,4]benzo[1,2-d]thiazol-7-yl)methyl (2-chloropyrimidin-5-yl)carbamate] |
| 8.3 | COc1cnc2c(-c3nc4c(C)cc5c(c4s3)OC[C@H](COC(=O)Nc3cnc(Cl)nc3)O5)cc(C)cc2n1 [Example 59, (R)-(2-(2-methoxy-7-methylquinoxalin-5-yl)-4-methyl-7,8-dihydro-[1,4]dioxino[2′,3′:3,4]benzo[1,2-d]thiazol-7-yl)methyl (2-chloropyrimidin-5-yl)carbamate] |
| 6.9 | COc1cnc2c(-c3nc4c(Cl)cc5c(c4s3)OC[C@H](COC(=O)Nc3cnc(C)c(C)c3)O5)cc(C)cc2n1 [Example 60, (R)-(4-chloro-2-(2-methoxy-7-methylquinoxalin-5-yl)-7,8-dihydro-[1,4]dioxino[2′,3′:3,4]benzo[1,2-d]thiazol-7-yl)methyl (5,6-dimethylpyridin-3-yl) carbamate] |
| 23 | COc1cnc2c(-c3nc4c(C)cc5c(c4s3)OC[C@H](COC(=O)Nc3cnc(F)c(C)c3)O5)cc(C)cc2n1 [Example 61, (R)-(2-(2-methoxy-7-methylquinoxalin-5-yl)-4-methyl-7,8-dihydro-[1,4]dioxino [2′,3′:3,4]benzo[1,2-d]thiazol-7-yl)methyl (6-fluoro-5-methylpyridin-3-yl)carbamate] |
| 1 | COc1cnc2c(-c3nc4c(Cl)cc5c(c4s3)OC[C@H](COC(=O)Nc3ccc(C)nc3)O5)cc(C)cc2n1 [Example 62] |
